Results from patent EP0335545B2, “Pharmaceutical formulations for parenteral use” (UNIVERSITY OF FLORIDA, priority 1988, dated 1989).

Assay: Lung and brain concentrations in male rats after i.v. E2-CDS in DMSO or as HPCD complex (HPLC with pre-column enrichment)
Format: in vivo, Sprague-Dawley rats
Source text: The loss of sensitivity resulting from the dilution step in the procedure optimal for pretreatment of biological samples (see sample preparation without extraction) could be compensated for by developing an HPLC system that allows injection of large volumes. A suitable HPLC-method which has been described in the literature [Roth et al, J. Chromatogr. 222: 13-22 (1981)] is based on alternating pre-column sample enrichment. The procedure used herein was as follows: The sample containing the drug is injected with a first pump A, delivering pure water, onto one of two pre-columns, which are alternatingly connected with the injection system by two pneumatically driven valves. Provided a certain lipophilicity, the drug is retained and concentrated on the pre-column, while accompanying water soluble-co-products like proteins are being washed out as long as water is pumped through the pre-column. This allows the direct injection of body fluids. After a certain enrichment time (6 and 8 minutes), simultaneous rotation of the two valves is induced, causing pre-column 1, where the injected drug has been absorbed, to be switched to the solvent stream of the second pump, B. Also, at this point, the recording integrator is started. Pump B delivers the mobile phase, necessary for separation and chromatography, and backflushes the sample from pre-column 1 onto the analytical column. Parallel to this process, pre-column 2 is switched to the water stream of pump A so that a sample can be injected and enriched while the previous one is being eluted (alternating mode). Volumes up to 1800 µL can be injected due to the concentration effect of the enrichment phase.
This system was applicable to the quantification of E2, E2-CDS and E2-Quat. The mobile phase for E2-CDS was: Acetonitrile/water 80:20 at a flow rate of 1.8 mL/minute. Optimal peak shape and retention time for E2 and E2-Ouat were obtained with pump B delivering a mixture of acetonitrile/water 42:58 which contained 0.025 M/L sodium salt of 1-octanesulfonic acid and 0.003 M/L tetrabutylammonium phosphate. […]

[1] = 15 mg/kg in DMSO relative to 5 mg/kg as complex with HPCD in water, i.v., within the first hour

CN1C=CCC(C(=O)O[C@H]2CC[C@H]3[C@@H]4CCc5cc(O)ccc5[C@H]4CC[C@]23C)=C1 [Example E2-CDS, 3-Hydroxy-17β-[(1-methyl-1,4-dihydropyridin-3-yl)carbonyl]oxyestra-1,3,5(10)-triene]
initial lung concentrations of E2-CDS, corrected for dose [1]: more than ten-fold | initial lung concentrations of E2-Quat, corrected for dose [1]: more than ten-fold | brain levels of E2-Quat, corrected for dose (after 1 hour, HPCD complex in water compared to DMSO): not significantly different
